What was measured:
[1] = system: SW620; test: Neutral red uptake antiproliferative assay, SW620; type: cell-based, human; details: Homo sapiens, SW-620; exposure time 72 h, n = 3; 95% CI given
Excerpt: (§1) To assess the impact of conjugating half-sandwich complexes with amines 1 via an imine-pyridine ligand on biological activity, we examined the antiproliferative potential of (R)- and (S)-1 and organometallic conjugates 3a–d and 4a–d in selected human cancer cell lines: alveolar basal epithelial cell adenocarcinoma (A549), colorectal adenocarcinomas (Colo205 and SW620), colorectal carcinoma (HCT116), hepatocellular carcinoma (HepG2), and breast adenocarcinoma (MCF7). The choice of cell lines was dictated by results of previously published clinical trials on ispinesib.[49],[50]
(§2) Cell lines used in this study were purchased from the American Type Culture Collection via LGC Standards. Human normal lung fibroblasts (MRC-5), alveolar basal epithelial cell adenocarcinoma (A549), colorectal adenocarcinoma (Colo205), hepatocellular carcinoma (HepG2), breast adenocarcinoma (MCF7), and colorectal adenocarcinoma (SW620) and its MDR variants[55] were cultured in standard conditions (37 °C, 5% CO2, 100% relative humidity) in high glucose DMEM medium supplemented with GlutaMax, HEPES (ThermoFisher Scientific) and 10% fetal bovine serum (EURx, Poland). All cell lines were tested for Mycoplasma contamination using a MycoProbe mycoplasma detection kit (R&D System).
(§3) For this purpose, neutral red uptake assay was performed. 10^4 of cells were seeded per well of a 96-well plate and left overnight to allow cells to attach to the surface. Then, the cells were exposed to a desired concentration of tested compounds. Stock solutions were prepared in DMSO and were used immediately after preparation. The final concentration of DMSO was constant and nontoxic (0.1% v/v). After 70 h of culture, neutral red was added to the final concentration of 1 mM. After 2 h of incubation with the dye, the medium was aspirated and cells were washed with ice-cold PBS. The dye was released using 100 μL of the solubilizer (1% acetic acid in 50% ethanol) on an orbital shaker (10 min). The absorbance at 540 nm was measured using an EnVision multilabel plate reader (PerkinElmer). […] The IC90 and IC50 parameters were calculated using GraphPad Prism v9 software using the five-parameter nonlinear logistic regression model.

[2] = system: SW620Mito; test: Neutral red uptake antiproliferative assay, MDR line SW620Mito; type: cell-based, human; details: Homo sapiens; exposure time 72 h, n = 3; ABCG2-overexpressing MDR line
Excerpt: (§4) Next, we evaluated the cytotoxicity of the synthesized complexes toward the panel of six multidrug-resistant (MDR) cell lines derived from SW620 and characterized by the overexpression of various ABC proteins, namely, ABCG2 (SW620C and SW620Mito), ABCC1 (SW620M and SW620E), and ABCB1 (SW620D, SW620E, and SW620V) (Table 3, Figures S29 and S32). […] The activity of the complexes derived from the ligand (S)-2 is also considerably higher than that of the compounds containing the ligand (R)-2. The cytotoxicity of both rhodium 4c and iridium 4d complexes is higher than that of amine (S)-1. In the case of 4c, the increase in cytotoxicity is low, with the highest value of 3.7-fold for the SW620Mito line. […] Compound 4d also exerts a 2.1- and 2.6-fold higher cytotoxicity than […] against the SW620C and SW620D lines.
(§5) For this purpose, neutral red uptake assay was performed. […] The results were presented as a percentage of control.

[3] = system: SW620 cells; test: Cell cycle distribution by flow cytometry, SW620; type: cell-based, human; details: concentration equal to IC75 of (S)-1 / (R)-1, mean ± SEM, n = 3; for Cell cycle fraction G1, 24 h / Cell cycle fraction G2/M, 24 h / Cell cycle fraction S, 24 h: SW620, 24 h; for Cell cycle fraction G1, 48 h / Cell cycle fraction G2/M, 48 h / Cell cycle fraction S, 48 h: SW620, 48 h
Protocol: Ispinesib leads to the formation of monopolar mitotic spindles and a blockade of chromosome segregation in cancer cells. Using flow cytometry, we assessed the cell cycle distribution in the SW620 and SW620E cells exposed to the studied compounds for 24 and 48 h. […] Both complexes, 3c and 3d, decrease the percentage of cells in the G1/G0 phase and increase the percentage in the S and G2/M phases. […] Furthermore, prolonged exposure to the compounds increases the percentage of cells in the G2/M phase, with the most intensive effect observed for 3c and 3d.
SW620 and SW620E cells lines (vulnerable and resistant variants, respectively) were seeded in 6-well plates at a density of 10^5 cells per well. […] After 24 h, the cells were trypsinized and fixed with ice-cold 70% v/v ethanol. The cells were stained with 75 μM propidium iodide with 50 Kunitz units of RNase A in PBS for 30 min at 37 °C. All samples were analyzed using a LSRII flow cytometer (Becton Dickinson) at a PE channel ([…]). Cell cycle phase distribution was determined using a built-in cell cycle module (Watson pragmatic algorithm) by FlowJo 7.6.1 software.

[4] = system: HCT116; test: cells; details: Homo sapiens, HCT-116, 72 h, read-out: IC50 HCT116
Excerpt: as §1, §3

[5] = system: A549; test: Neutral red uptake antiproliferative assay, A549; details: Homo sapiens, A549, 72 h, read-out: IC50 A549
Excerpt: as §1, §2, §3

[6] = system: SW620D; test: Neutral red uptake antiproliferative assay, MDR line SW620D; type: cell-based, human; details: Homo sapiens; exposure time 72 h, n = 3; ABCB1-overexpressing MDR line
Excerpt: as §4, §5

[7] = system: SW620E; test: Neutral red uptake antiproliferative assay, MDR line SW620E; type: cell-based, human; details: Homo sapiens; exposure time 72 h, n = 3; ABCC1- and ABCB1-overexpressing MDR line
Excerpt: as §4, §5

[8] = system: SW620M; test: Neutral red uptake antiproliferative assay, MDR line SW620M; type: cell-based, human; details: Homo sapiens; exposure time 72 h, n = 3; ABCC1-overexpressing MDR line
Excerpt: as §4, §5

[9] = system: SW620V; test: Neutral red uptake antiproliferative assay, MDR line SW620V; type: cell-based, human; details: Homo sapiens; exposure time 72 h, n = 3; ABCB1-overexpressing MDR line
Excerpt: as §4, §5

[10] = system: SW620C; test: Neutral red uptake antiproliferative assay, MDR line SW620C; type: cell-based, human; details: Homo sapiens; exposure time 72 h, n = 3; ABCG2-overexpressing MDR line
Excerpt: as §4, §5

[11] = molecular target: T1, KSP (Homo sapiens, UniProt P52732); test: Kinesin ATPase inhibition (ATP hydrolysis) end-point assay; type: biochemical; details: 100 nM stated for ispinesib and (R)-1; concentration not restated for the complexes
T1 construct: purchased Cytoskeleton, Inc
T1 sequence (P52732 1-368 limits assumed): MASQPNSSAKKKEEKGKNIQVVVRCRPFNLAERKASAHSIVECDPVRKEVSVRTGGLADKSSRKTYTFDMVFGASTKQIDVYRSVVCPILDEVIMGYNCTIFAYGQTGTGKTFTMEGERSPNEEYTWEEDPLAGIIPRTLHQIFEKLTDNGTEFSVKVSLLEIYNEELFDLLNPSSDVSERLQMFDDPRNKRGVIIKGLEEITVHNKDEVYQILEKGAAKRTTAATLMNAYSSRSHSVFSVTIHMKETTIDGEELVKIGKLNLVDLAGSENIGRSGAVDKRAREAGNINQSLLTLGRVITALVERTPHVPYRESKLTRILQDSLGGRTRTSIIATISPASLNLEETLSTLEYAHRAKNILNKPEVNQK
Protocol: The mechanism of the anticancer activity of ispinesib is related to the inhibition of the activity of the KSP. Thus, we studied the synthesized compounds’ ability to inhibit KSP activity using the adenosine 5′-triphosphate (ATP) hydrolysis assay.
The potential kinesin modulatory activity of tested compounds was performed using a Kinesin ATPase end-point biochem kit (Cytoskeleton, Inc.). […] The experiment was performed according to the manufacturer’s instructions. One μg of tested kinesin (KSP) was used per reaction. Phosphate release was measured at the absorbance 650 nm using an EnVision multilabel plate reader (PerkinElmer).

[12] = system: MCF7; test: cells; details: Homo sapiens, MCF7, 72 h, read-out: IC50 MCF7
Excerpt: as §1, §2, §3

[13] = system: Colo205; test: cells; details: Homo sapiens, COLO 205, 72 h, read-out: IC50 Colo205
Excerpt: as §1, §2, §3

[14] = system: HepG2; test: cells; details: Homo sapiens, HepG2, 72 h, read-out: IC50 HepG2
Excerpt: as §1, §2, §3

IC50 [1] [nM] | IC50 [2] [nM] | IC50 [4] [µM] | IC50 [5] [µM] | IC50 [6] [nM] | IC50 [7] [nM] | IC50 [8] [nM] | IC50 [9] [nM] | IC50 [10] [nM] | KSP residual activity [11] | IC50 [12] [nM] | IC50 [13] [µM] | IC50 [14] [nM] | Compound | Cell cycle fraction G1, 24 h [3] [%] | Cell cycle fraction G2/M, 24 h [3] [%] | Cell cycle fraction S, 24 h [3] [%] | Cell cycle fraction G1, 48 h [3] [%] | Cell cycle fraction G2/M, 48 h [3] [%] | Cell cycle fraction S, 48 h [3] [%]
96 | 261 | 0.346 | 2.21 | 1120 | 835 | 241 | 206 | 721 | about 35% | 231 | 0.107 | 566 | CC(C)[C@@H](N)c1nc2cc(Cl)ccc2c(=O)n1Cc1ccccc1 [(R)-1, reference compound] | 45.4 ± 1.0 | 36.6 ± 2.2 | 17.2 ± 1.3 | 36.2 ± 1.4 | 42.1 ± 0.4 | 19.0 ± 0.6
2870 | 3910 | 8.06 | 7.05 | 4150 | 4050 | 3460 | 3440 | 3330 | – | 3910 | 6.07 | 2400 | CC(C)[C@H](N)c1nc2cc(Cl)ccc2c(=O)n1Cc1ccccc1 [(S)-1, reference compound] | 41.8 ± 1.2 | 37.1 ± 1.2 | 19.5 ± 0.3 | 35.2 ± 1.1 | 42.5 ± 0.6 | 19.9 ± 0.4

From paper PMC11044151, “Development of Half-Sandwich Ru, Os, Rh, and Ir Complexes Bearing the Pyridine-2-ylmethanimine Bidentate Ligand Derived from 7-Chloroquinazolin-4(3H)-one with Enhanced Antiproliferative Activity” (ACS Omega, 2024)
